The source of these data is paper PMC4491662, “Synthesis, Biological Evaluation and Molecular Modeling of Substituted Indeno[1,2-b]indoles as Inhibitors of Human Protein Kinase CK2” (Pharmaceuticals, 2015).

As a reminder, the EC50 is the concentration needed to bring the measured effect to its halfway point. For orientation: IC50 means the concentration that gives 50% inhibition. For orientation: melting point means the temperature, or range, at which the solid turns liquid. As a reminder, the inhibition is how much of the control response was suppressed. Read a high inhibition as strong suppression.

The test system of one data set is MEF. Nature of the data set: Cytotoxicity WST-1 assay on MEF. Format: cell-based, mouse. The following applies: Mus musculus, 96 h, read-out: EC50 in µM ± SD. An excerpt: (§1) Four cell lines of various origins were used to evaluate the cytotoxicity of our target compounds 5–7. The selected cell lines were (i) NIH-3T3, a cell line originally established from the primary mouse embryonic fibroblast cells, (ii) MEF, primary mouse embryonic fibroblasts (used at their early passages) prepared as previously described, (iii) WI-38, a human diploid cell line derived from normal embryonic lung tissue, and (iv) HEK293T, a transformed variant of the human embryonic kidney cell line HEK293. After 96 h, cytotoxicity was evaluated using the WST-1 assay. […] Seventeen compounds were evaluated on the cell lines and then compared to TBB used as a standard. […]. All cells were grown in DMEM medium supplemented with 10% fetal calf serum, glutamine (2 mM), penicillin (100 U/mL), and streptomycin (50 μg/mL) at 37 °C under a humidified 5% CO2 atmosphere (Gibco). The assays were performed in sterile 96-wells microtiter plates (Falcon). Cells were plated at 500 (NIH-3T3), 750 (WI-38) or 1000 (MEF; HEK293T) cells/100 µL/well. Drug solutions (10 μL per well) of appropriate concentration (prepared by dilution in the culture medium from 2 mM stock acetonitrile solution) were added 24 h after cell seeding. For ellagic acid and emodin, DMSO was used to prepare the stock solution. After 96 h, the cytotoxicity is evaluated using the Cell Proliferation Reagent WST-1 following the procedure described by the manufacturer (Roche Applied Science). The drugs were assayed at 10, 5, 1, 0.2 and 0.04 µM in triplicate. The vehicle was used as control. The experiments were repeated three times.
Background: Formazan colour is commonly taken as a measure of viable cells.

Data set [1] has as its target T1, human CK2 holoenzyme (Homo sapiens, UniProt P68400). The following applies: read-out: IC50 ± SD, assay buffer with 100 µM ATP.
The subject of another data set is HEK293T. Nature of the data set: Cytotoxicity WST-1 assay on HEK293T. Format: cell-based, human. The following applies: Homo sapiens, HEK-293T, 96 h, read-out: EC50 in µM ± SD.
Description: as §1

In the next data set the test system is NIH-3T3. Briefly: Cytotoxicity WST-1 assay on NIH-3T3. The following applies: Mus musculus, NIH3T3, 96 h, read-out: EC50 in µM ± SD. Format: cell-based, mouse.
Description: as §1

A further data set relates to WI-38. Briefly: Cytotoxicity WST-1 assay on WI-38. Format: cell-based, human. The following applies: Homo sapiens, WI-38, 96 h, read-out: EC50 in µM ± SD.
Description: as §1

Data set [2] deals with T1, human CK2 holoenzyme. Briefly: biochemical. The following applies: average percent inhibition at 10 µM.
Data set [3] is described as follows: Cytotoxicity WST-1 assay, statements over the four cell lines. Format: cell-based. The following applies: mouse (NIH-3T3, MEF) and human (WI-38, HEK293T), WST-1, cell line not specified, read-out: EC50 (cytotoxic activity, over the cell lines).
Description: as §1

For data set [4], the system named is tumor cell lines (5637, SISO, KYSE-70, MCF-7, LCLC, A427). The following applies: cited from earlier work.

T1 sequence (P68400 whole entry): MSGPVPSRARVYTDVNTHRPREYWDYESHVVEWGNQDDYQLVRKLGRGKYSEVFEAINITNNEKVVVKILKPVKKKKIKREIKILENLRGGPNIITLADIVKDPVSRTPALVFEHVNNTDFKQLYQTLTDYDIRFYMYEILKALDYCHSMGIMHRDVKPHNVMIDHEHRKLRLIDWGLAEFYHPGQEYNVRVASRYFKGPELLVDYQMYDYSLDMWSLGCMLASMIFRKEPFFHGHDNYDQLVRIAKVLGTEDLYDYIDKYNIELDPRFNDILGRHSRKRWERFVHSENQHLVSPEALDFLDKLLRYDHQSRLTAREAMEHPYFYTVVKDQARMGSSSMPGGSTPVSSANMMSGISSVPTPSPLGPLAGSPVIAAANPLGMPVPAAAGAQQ
T1 sequence (P67870 whole entry partner): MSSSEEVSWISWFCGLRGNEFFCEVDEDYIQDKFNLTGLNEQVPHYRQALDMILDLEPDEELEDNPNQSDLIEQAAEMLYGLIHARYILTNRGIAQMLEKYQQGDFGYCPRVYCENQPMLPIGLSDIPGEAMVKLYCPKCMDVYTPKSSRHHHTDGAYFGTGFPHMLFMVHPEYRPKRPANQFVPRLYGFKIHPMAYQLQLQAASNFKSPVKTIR

Consider `CC(C)c1cc(=O)c2c3c(=O)c4ccccc4c3n(C(C)C)c2c1=O` [Compound 7b, 5,7-Diisopropyl-5H-indeno[1,2-b]indole-6,9,10-trione], for which the melting point came out at 230.4 °C. Also, the 50% effective concentration (EC50) in the data set on MEF is over 10 µM. Moreover, the half-inhibitory concentration (IC50) at human CK2 holoenzyme [1] was determined as 4.76 ± 0.29 µM. Further, the EC50 in the data set on HEK293T was over 10 µM. For the same molecule, in the data set with NIH-3T3, the concentration giving a half-maximal response (EC50) was over 10 µM. Also, the EC50 in the data set on WI-38 is over 10 µM. On human CK2 holoenzyme [2], the inhibition at 10 µM was found to be 60%.
Turning to `CC(C)n1c2c(=O)c(-c3ccc(F)cc3)cc(=O)c2c2c(=O)c3ccccc3c21` [Compound 7d, 7-(4-Fluorophenyl)-5-isopropyl-5H-indeno[1,2-b]indole-6,9,10-trione], the melting point amounted to 258.1 °C. Moreover, in the data set on MEF, the EC50 is 8.5 ± 0.4 µM. Moreover, the concentration for a half-maximal effect (EC50) with HEK293T came to 4.9 ± 2.4 µM. The EC50 at 96 h in data set [3] lay in the range of 0.4 to 8.8 µM. In addition, in the data set on NIH-3T3, the concentration giving a half-maximal response (EC50) is over 10 µM. The EC50 in the data set with WI-38 is over 10 µM. In addition, 10 µM produced 42% inhibition at human CK2 holoenzyme [2].
Take `Cc1cc(=O)c2c(c1=O)c1c(=O)c3ccccc3c1n2C(C)C` [Compound 7f, 5-Isopropyl-8-methyl-5H-indeno[1,2-b]indole-6,9,10-trione]: the EC50 in the data set on MEF is over 10 µM; in the data set with HEK293T, 4.4 ± 2.2 µM; in the data set with NIH-3T3, over 10 µM; with WI-38, over 10 µM. Besides, the IC50 on human CK2 holoenzyme [1] stood at 4.9 ± 0.54 µM. Further, the EC50 at 96 h in data set [3] lay within 0.4 to 8.8 µM. The molecule further had an inhibition at 10 µM at human CK2 holoenzyme [2] of 72%.
The molecule `CC(C)c1cc(=O)c2c(c1=O)c1c(=O)c3ccccc3c1n2C(C)C` [Compound 7g, 5,8-Diisopropyl-5H-indeno[1,2-b]indole-6,9,10-trione] registered a melting point of 226 °C. In addition, in the data set with MEF, the 50% effective concentration (EC50) is over 10 µM. Also, in the data set on HEK293T, the half-maximal effective concentration (EC50) was 0.4 ± 0.02 µM. In addition, the EC50 at 96 h in data set [3] lay within 0.4 to 8.8 µM. In the data set on NIH-3T3, the EC50 turned out to be 1.5 ± 0.8 µM. Further, the EC50 in the data set with WI-38 was determined as 2.5 ± 0.4 µM. At human CK2 holoenzyme [2], this molecule yielded an inhibition at 10 µM of 45%.
With `CC(C)n1c2c(=O)ccc(=O)c2c2c(=O)c3ccccc3c21` [Compound 7h, 5-isopropyl-5H-indeno[1,2-b]indole-6,9,10-trione], the “growth of tumor cell lines” value in data set [4] is “inhibited the growth”.
With `O=c1oc2c(O)c(O)cc3c(=O)oc4c(O)c(O)cc1c4c23` [ellagic acid, reference compound], the concentration for a half-maximal effect (EC50) with MEF, in the data set on HEK293T, with NIH-3T3 and with WI-38 was over 10 µM in each case. The IC50 on human CK2 holoenzyme [1] worked out at 0.04 ± 0.007 µM. At human CK2 holoenzyme [2], this molecule had an inhibition at 10 µM of 95%.
